BindingDB's records for doi:10.1016/j.bioorg.2013.09.002 (Ewha Womans University, 2013)
Where a SMILES comes first, the peptide text is derived from it. The star is where a group is joined. Cbz = O=C(OCc1ccccc1)*; CH2F = FC*

Key:
[1] = biological target: Procathepsin L (Homo sapiens, UniProt P07711); assay: Cathepsin L Inhibition Assay; details: pH 5.5; 37 °C
Protocol: Inhibition of cathepsin L was assayed in reaction buffer (0.1M NaOAc-HCl, 1 mM EDTA, 0.1% β-mercaptoethanol, pH 5.5) containing 20 µM substrate and 4 nM cathepsin L. Z-FR-AMC was used as a substrate for […]. Cathepsin L was activated by incubation in assay buffer at 37 °C for 30 min prior to initiation of the reaction by addition of the substrate and test compound. The reaction mixture was then incubated at room temperature for 30 min with shaking. Fluorescence intensities were measured at 360 nm excitation and 450 nm emission wavelengths.

[2] = biological target: T1, Calpain-1 catalytic subunit (Homo sapiens, UniProt P07384); assay: µ-Calpain Inhibition Assay; details: pH 7.5; 25 °C
T1 sequence (P07384 whole entry): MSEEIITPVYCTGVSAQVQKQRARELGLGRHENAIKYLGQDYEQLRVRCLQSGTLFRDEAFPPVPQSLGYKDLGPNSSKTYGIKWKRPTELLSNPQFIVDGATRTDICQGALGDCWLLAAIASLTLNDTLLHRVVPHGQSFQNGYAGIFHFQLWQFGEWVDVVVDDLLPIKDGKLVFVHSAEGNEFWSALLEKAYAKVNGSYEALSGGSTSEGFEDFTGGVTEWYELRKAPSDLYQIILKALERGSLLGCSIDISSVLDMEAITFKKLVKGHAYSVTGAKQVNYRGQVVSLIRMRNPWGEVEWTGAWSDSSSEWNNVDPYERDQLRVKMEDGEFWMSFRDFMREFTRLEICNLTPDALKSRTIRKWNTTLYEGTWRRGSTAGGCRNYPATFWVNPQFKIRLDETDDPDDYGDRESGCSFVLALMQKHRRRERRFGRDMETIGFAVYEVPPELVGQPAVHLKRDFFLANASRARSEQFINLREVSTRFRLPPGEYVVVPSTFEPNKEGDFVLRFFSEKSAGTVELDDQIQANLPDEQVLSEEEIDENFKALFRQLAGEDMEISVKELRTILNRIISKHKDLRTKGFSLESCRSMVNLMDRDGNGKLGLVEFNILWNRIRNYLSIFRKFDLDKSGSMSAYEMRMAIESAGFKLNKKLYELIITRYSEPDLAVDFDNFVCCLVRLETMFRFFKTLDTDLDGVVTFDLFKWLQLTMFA
Protocol: The reaction was initiated by sequential addition of substrate A, µ-calpain, each compound, and finally a CaCl2 solution. The reaction mixture (100 µL) was incubated at room temperature for 30 min with shaking. Fluorescence intensities were measured at 320 nm excitation and 420 nm emission wavelengths.

[3] = biological target: T2, Calpain-2 catalytic subunit (Homo sapiens, UniProt P17655); assay: m-Calpain Inhibition Assay; details: pH 7.5; 25 °C
T2 sequence (P17655 whole entry): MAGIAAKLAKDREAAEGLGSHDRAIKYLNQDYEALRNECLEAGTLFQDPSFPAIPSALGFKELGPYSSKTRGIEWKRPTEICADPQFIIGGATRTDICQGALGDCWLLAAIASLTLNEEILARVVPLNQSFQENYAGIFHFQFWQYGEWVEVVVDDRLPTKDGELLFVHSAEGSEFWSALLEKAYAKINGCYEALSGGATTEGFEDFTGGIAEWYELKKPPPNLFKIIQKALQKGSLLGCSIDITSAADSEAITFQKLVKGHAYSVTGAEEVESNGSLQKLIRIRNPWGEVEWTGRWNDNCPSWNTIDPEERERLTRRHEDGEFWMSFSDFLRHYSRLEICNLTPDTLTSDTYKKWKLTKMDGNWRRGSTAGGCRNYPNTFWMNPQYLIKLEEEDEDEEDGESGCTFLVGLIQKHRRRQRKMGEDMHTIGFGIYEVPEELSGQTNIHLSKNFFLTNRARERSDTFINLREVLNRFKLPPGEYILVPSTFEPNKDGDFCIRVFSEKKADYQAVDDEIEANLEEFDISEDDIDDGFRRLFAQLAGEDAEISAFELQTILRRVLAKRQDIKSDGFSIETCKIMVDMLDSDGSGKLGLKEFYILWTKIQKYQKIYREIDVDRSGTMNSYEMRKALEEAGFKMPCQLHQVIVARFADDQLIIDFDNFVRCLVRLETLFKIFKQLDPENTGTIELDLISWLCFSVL
Protocol: Inhibition of m-calpain was assayed in the reaction buffer (50 mM Tris-HCl, 100 mM NaCl, 5 mM β-mercaptoethanol, and 1 mM EDTA, pH 7.5) with 50 µM substrate B, 5 mM CaCl2 and 2.88 U/mL m-calpain. The reaction was initiated by sequential addition of substrate B, m-calpain, each compound, and finally a CaCl2 solution. The reaction mixture (100 µL) was incubated at room temperature for 30 min with shaking. Fluorescence intensities were measured at 320 nm excitation and 420 nm emission wavelengths. MDL28170 was used as a positive control for µ- and m-calpain inhibition.

Chain of Procathepsin L (P07711 whole entry): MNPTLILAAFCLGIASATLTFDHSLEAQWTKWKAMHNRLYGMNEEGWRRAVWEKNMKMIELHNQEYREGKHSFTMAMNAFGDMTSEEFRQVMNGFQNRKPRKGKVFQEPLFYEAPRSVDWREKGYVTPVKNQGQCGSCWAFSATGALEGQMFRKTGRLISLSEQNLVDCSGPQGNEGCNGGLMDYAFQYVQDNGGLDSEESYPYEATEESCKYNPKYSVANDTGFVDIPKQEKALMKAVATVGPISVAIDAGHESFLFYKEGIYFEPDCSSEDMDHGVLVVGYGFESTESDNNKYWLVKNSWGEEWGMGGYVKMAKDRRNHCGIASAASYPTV

| Compound | IC50 [1] [µM] | IC50 [2] [µM] | IC50 [3] [µM] |
| --- | --- | --- | --- |
| O=C(/C=C/c1cccs1)c1ccc(O)cc1O [1-(2,4-Dihydroxyphenyl)-3-(thiophen-2-yl)propenone (9)] | 53 | 56.2 | 39.9 |
| O=C(/C=C/c1ccncc1)c1ccc(O)cc1O [1-(2,4-Dihydroxyphenyl)-3-(pyridin-4-yl)propenone (6)] | 44.4 | > 100 | > 100 |
| O=C(NC(Cc1ccccc1)C(=O)NC(Cc1ccccc1)C(=O)CF)OCc1ccccc1 (stereo not drawn) [benzyl N-[1-[(4-fluoro-3-oxo-1-phenylbutan-2-yl)amino]-1-oxo-3-phenylpropan-2-yl]carbamate] (Cbz-Phe-Phe-CH2F; configuration not given here) | – | 0.397 | 0.418 |
| O=C(/C=C/c1ccco1)c1ccc(O)cc1O [1-(2,4-Dihydroxyphenyl)-3-(furan-2-yl)propenone (10)] | 90.5 | 86.7 | 25.4 |
| O=C(/C=C/c1cccs1)c1cc(O)cc(O)c1 [1-(3,5-Dihydroxyphenyl)-3-(thiophen-2-yl)propenone (20)] | > 100 | > 100 | > 100 |
| CC(C)C(NC(=O)OCc1ccccc1)C(=O)NC(C=O)Cc1ccccc1 [benzyl N-[(1S)-2-methyl-1-[(1-oxo-3-phenylpropan-2-yl)carbamoyl]propyl]carbamate] (Cbz-Val-Phe-aldehyde; configuration not given here) | – | – | 0.15 |
| O=C(/C=C/c1ccccc1)c1cc(O)cc(O)c1 [1-(3,5-Dihydroxyphenyl)-3-phenylpropenone (22)] | > 100 | > 100 | > 100 |
| O=C(/C=C/c1ccccn1)c1ccc(O)cc1O [1-(2,4-Dihydroxyphenyl)-3-(pyridin-2-yl)propenone (8)] | > 100 | > 100 | > 100 |
| O=C(/C=C/c1ccc(O)cc1O)c1cccs1 [3-(2,4-Dihydroxyphenyl)-1-(thiophen-2-yl)propenone (13)] | 2.8 | > 100 | 60.2 |
| O=C(/C=C/c1ccc(O)cc1O)c1ccco1 [3-(2,4-Dihydroxyphenyl)-1-(furan-2-yl)propenone (14)] | 2.87 | > 100 | > 100 |
| O=C(/C=C/c1ccco1)c1cc(O)cc(O)c1 [1-(3,5-Dihydroxyphenyl)-3-(furan-2-yl)propenone (21)] | > 100 | > 100 | > 100 |
| O=C(/C=C/c1ccoc1)c1cc(O)cc(O)c1 [1-(3,5-Dihydroxyphenyl)-3-(furan-3-yl)propenone (24)] | > 100 | > 100 | > 100 |
| O=C(/C=C/c1cccnc1)c1ccc(O)cc1O [1-(2,4-Dihydroxyphenyl)-3-(pyridin-3-yl)propenone (7)] | > 100 | > 100 | > 100 |
| O=C(/C=C/c1ccsc1)c1cc(O)cc(O)c1 [1-(3,5-Dihydroxyphenyl)-3-(thiophen-3-yl)propenone (23)] | > 100 | > 100 | 97.3 |
| CCCNC(=O)[C@H]1O[C@@H]1C(=O)N[C@H](C(=O)N1CCC[C@H]1C(=O)O)[C@@H](C)CC [CA074] | – | > 100 | > 100 |
